Results on 13 molecules are retold here after US11078198B2 (BRISTOL-MYERS SQUIBB COMPANY, priority 2017, dated 2021).

What is called EC50 is the concentration needed to bring the measured effect to its halfway point. A higher EC50 goes with a need for much substance.

One experiment concerns Fgf15. As to the kind of experiment: Acute mouse in vivo assay, Fgf15 gene expression in ileum. The conditions noted are these: @ 6 h. The method, then: (§1) Acute Mouse In Vivo Assay:
(§2) Male, C57BL6/NTac mice, weighing 25-28 g, are purchased from Taconic Labs (Hudson, N.Y.) and maintained on Teklad Global 18% Protein Rodent Diet (Harlan Laboratories). After 1 week acclimation, mice are sorted into groups based upon body weight. Mice are administered a single oral dose of vehicle or experimental compound. Systemic compound exposure is evaluated in plasma derived from blood collected via the submandibular vein at 1 hour post-dose, and at study termination (6 h). At study termination, the animals are euthanized and rapidly dissected. The medial lobe of the liver is divided, with one half being homogenized and analyzed for compound exposure, and the other half saved in RNAlater (Thermo-Fisher Scientific). The ileum is also dissected and preserved in RNAlater. Tissue samples in RNAlater are homogenized with MP Biomedicals' beads. RNA is extracted using the MagMax-96 Total RNA Isolation kit (Thermo-Fisher Scientific) according to the manufacturer's protocol. RNA Concentration is determined with the Nano-Drop 8000 Spectrophotometer (Thermo Fisher). Reverse transcription is done with Invitrogen's SuperScript® VILO cDNA Synthesis Kit according to the manufacturer's protocol. Real time PCR is done with Applied Biosystems' Taqman PCR master mixture according to the manufacturer's protocol. All primers are purchased from Thermo-Fisher Scientific. Mouse genes analyzed include Nr0b2 (which encodes the small heterodimer partner, SHP), Abcb11 (which encodes the bile salt excretion pump, BSEP), Cyp7a1, & Cyp8b1 in liver, and Fgf15, Fabp6 (which encodes ileal bile acid binding protein, I-BABP), Slc51a (which encodes organic solute transporter alpha subunit, OSTA), and Slc51b (which encodes organic solute transporter beta subunit, OSTB) in the ileum. The statistical significant changes in FGF15 gene expression are expressed as fold increase and CYP7A1 expression as a percent reduction relative to vehicle control.

For a further experiment, the system named is Cyp7a1. Description: Acute mouse in vivo assay, Cyp7a1 gene expression in liver. Conditions: @ 6 h. The method, then:
as §1, §2

A further experiment has as its target T1, human FXR (Homo sapiens, UniProt Q96RI1).
T1 construct: expressed in transfected cells; host or cells: HEK293 cells stably carrying a 5xGal4-response-element firefly luciferase reporter, transiently transfected with pcDNA3.1-Gal4-FXR
T1 sequence (Q96RI1 262-486 limits assumed): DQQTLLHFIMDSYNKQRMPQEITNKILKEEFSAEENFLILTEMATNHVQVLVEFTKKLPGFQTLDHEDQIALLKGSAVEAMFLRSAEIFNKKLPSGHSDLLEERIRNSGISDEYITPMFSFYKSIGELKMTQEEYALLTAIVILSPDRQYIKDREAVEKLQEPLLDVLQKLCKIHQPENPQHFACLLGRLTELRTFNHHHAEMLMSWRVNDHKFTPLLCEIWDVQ
As to the kind of experiment: transient human FXR/Gal4-luciferase reporter assay. The conditions noted are these: Gal4-hFXR transfected HEK293 reporter cells; relative to 8 μM GW-4064. The experiment is classed as cell-based. The method, boiled down: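 HEK293 cells stably carrying a 5×Gal4-response-element firefly luciferase reporter, transiently transfected overnight with a CMV-driven Gal4 DNA-binding domain/human FXR ligand-binding domain fusion.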
A general note: In a reporter assay the amount or activity of a reporter protein is the signal.

Take `O=C(O)c1cc(F)c2nc(N3CCC4(C=C(c5c(-c6c(Cl)cccc6Cl)noc5C5CC5)C4)CC3)sc2c1` [Example 1, 2-(2-(5-Cyclopropyl-3-(2,6-dichlorophenyl)isoxazol-4-yl)-7-azaspiro[3.5]non-1-en-7-yl)-4-fluorobenzo[d]thiazole-6-carboxylic acid]: the “Fgf15 expression, fold increase relative to vehicle control” value with Fgf15 (single oral dose 3 mg/kg) is “+18 ×”; in the experiment with Fgf15 (single oral dose 30 mg/kg), “+31 ×”. The “Cyp7a1 expression, percent reduction relative to vehicle control” value with Cyp7a1 (single oral dose 3 mg/kg) and in the experiment on Cyp7a1 (single oral dose 30 mg/kg) was −99% throughout. Turning to `O=C(O)c1ccc2cc(N3CCC4(C=C(c5c(-c6c(Cl)cccc6Cl)noc5C5CC5)C4)CC3)ccc2n1` [Example 20, 6-(2-(5-Cyclopropyl-3-(2,6-dichlorophenyl)isoxazol-4-yl)-7-azaspiro[3.5]non-1-en-7-yl) quinoline-2-carboxylic acid], the “Cyp7a1 expression, percent reduction relative to vehicle control” value in the experiment with Cyp7a1 (single oral dose 3 mg/kg) is on record as −98%. The same measure, in the same setting: with `O=C(O)c1cc(C(F)(F)F)c2cc(N3CCC4(C=C(c5c(-c6c(Cl)cncc6Cl)noc5C5CC5)C4)CC3)ccc2n1` [Example 85, 6-(2-(5-cyclopropyl-3-(3,5-dichloropyridin-4-yl)isoxazol-4-yl)-7-azaspiro[3.5]non-1-en-7-yl)-4-(trifluoromethyl)quinoline-2-carboxylic acid] the figure was −94%. As to `COc1cc(C(=O)O)nc2ccc(N3CCC4(C=C(c5c(-c6c(Cl)cncc6Cl)noc5C5CC5)C4)CC3)cc12` [Example 108, 6-(2-(5-Cyclopropyl-3-(3,5-dichloropyridin-4-yl)isoxazol-4-yl)-7-azaspiro[3.5]non-1-en-7-yl)-4-methoxyquinoline-2-carboxylic acid], a half-maximal effect on human FXR (EC50) was put at 0.032 µM. In addition, the “Fgf15 expression, fold increase relative to vehicle control” value with Fgf15 (single oral dose 3 mg/kg) is “+14 ×”. Also, the “Cyp7a1 expression, percent reduction relative to vehicle control” value in the experiment on Cyp7a1 (single oral dose 3 mg/kg) is on record as −97%. On to `CS(=O)(=O)NC(=O)c1cc(C(F)(F)F)c2cc(N3CCC4(C=C(c5c(-c6c(Cl)cncc6Cl)noc5C5CC5)C4)CC3)ccc2n1` [Example 184, 6-(2-(5-Cyclopropyl-3-(3,5-dichloropyridin-4-yl)isoxazol-4-yl)-7-azaspiro[3.5]non-1-en-7-yl)-N-(methylsulfonyl)-4-(trifluoromethyl)quinoline-2-carboxamide], for which it took 0.073 µM to reach a half-maximal effect on human FXR (EC50). Besides, the “Fgf15 expression, fold increase relative to vehicle control” value in the experiment with Fgf15 (single oral dose 3 mg/kg) is “+28 ×”. The “Cyp7a1 expression, percent reduction relative to vehicle control” value with Cyp7a1 (single oral dose 3 mg/kg) was −99%.

At human FXR, `O=C(O)c1cc(F)c2nc(N3CCC4(C=C(c5c(C(F)F)cnn5-c5ccccc5OC(F)(F)F)C4)CC3)sc2c1` [Example 217, 2-(2-(4-(Difluoromethyl)-1-(2-(trifluoromethoxy)phenyl)-1H-pyrazol-5-yl)-7-azaspiro[3.5]non-1-en-7-yl)-4-fluorobenzo[d]thiazole-6-carboxylic acid] came in with an EC50 of 0.23 µM. `O=C(O)c1ccc(N2CCC3(C=C(c4c(C(F)F)cnn4-c4ccccc4OC(F)(F)F)C3)CC2)nc1` [Example 218, 6-(2-(4-(Difluoromethyl)-1-(2-(trifluoromethoxy)phenyl)-1H-pyrazol-5-yl)-7-azaspiro[3.5]non-1-en-7-yl)nicotinic acid] showed an EC50 on human FXR of 1.08 µM. On human FXR, `Cn1cc(C(=O)O)c2ccc(N3CCC4(C=C(c5c(C(F)F)cnn5-c5ccccc5C(F)(F)F)C4)CC3)cc21` [Example 219, 6-(2-(4-(Difluoromethyl)-1-(2-(trifluoromethyl)phenyl)-1H-pyrazol-5-yl)-7-azaspiro[3.5]non-1-en-7-yl)-1-methyl-1H-indole-3-carboxylic acid] came in with a half-maximal effective concentration (EC50) of 0.18 µM. On human FXR, `Cc1cc(C(=O)O)cc2sc(N3CCC4(CC3)CC(c3c(C(F)F)cnn3-c3ccccc3C(F)(F)F)C4)nc12` [Example 220, 2-(2-(4-(Difluoromethyl)-1-(2-(trifluoromethyl)phenyl)-1H-pyrazol-5-yl)-7-azaspiro[3.5]nonan-7-yl)-4-methylbenzo[d]thiazole-6-carboxylic acid] came in with an EC50 of 0.378 µM. Still for that read-out and setting: the result for `Cc1cc(C(=O)O)cc2sc(N3CCC4(C=C(c5c(C(F)F)cnn5-c5ccccc5OC(F)(F)F)C4)CC3)nc12` [Example 221, 2-(2-(4-(Difluoromethyl)-1-(2-(trifluoromethoxy)phenyl)-1H-pyrazol-5-yl)-7-azaspiro[3.5]non-1-en-7-yl)-4-methylbenzo[d]thiazole-6-carboxylic acid] reads 0.182 µM; that for `Cn1cc(C(=O)O)c2ccc(N3CCC4(CC3)CC(c3c(C(F)F)cnn3-c3ccccc3C(F)(F)F)C4)cc21` [Example 222, 6-(2-(4-(Difluoromethyl)-1-(2-(trifluoromethyl)phenyl)-1H-pyrazol-5-yl)-7-azaspiro[3. 5]nonan-7-yl)-1-methyl-1H-indole-3-carboxylic acid], 0.275 µM; that for `O=C(O)c1ccc(N2CCC3(C=C(c4c(C(F)F)cnn4-c4ccccc4C(F)(F)F)C3)CC2)nc1` [Example 223], 0.205 µM. On the same count and under the same terms, the result for `O=C(O[C@@H]1O[C@H](C(=O)O)[C@@H](O)[C@H](O)[C@H]1O)c1cc(C(F)(F)F)c2cc(N3CCC4(C=C(c5c(-c6c(Cl)cncc6Cl)noc5C5CC5)C4)CC3)ccc2n1` [Example 224, (2S,3S,4S,5R,6S)-6-((6-(2-(5-Cyclopropyl-3-(3,5-dichloropyridin-4-yl)isoxazol-4-yl)-7-azaspiro[3.5]non-1-en-7-yl)-4-(trifluoromethyl)quinoline-2-carbonyl)oxy)-3,4,5-trihydroxytetrahydro-2H-pyran-2-carboxylic acid] reads 0.073 µM.
